Test results reported in US10597388B2, “Pyridazinone herbicides” (FMC CORPORATION, priority 2014, dated 2020).

Columns and labels:
Test in all cases: Test D controlled growth environment herbicide test, pre- and postemergence
Type in all cases: in vivo
[1] = test system: blackgrass (Alopecurus myosuroides)
How it was run: (§1)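 Rating is visual, 0–100 scale (100 = complete control), made against untreated plants 14–21 d after treatment in controlled growth conditions. Postemergence sprays went onto 1- to 4-leaf plants in peat medium; preemergence sprays onto silt loam after sowing; formulation included a surfactant.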

[2] = test system: deadnettle (henbit deadnettle, Lamium amplexicaule)
How it was run: as §1

[3] = test system: galium (catchweed bedstraw, Galium aparine)
How it was run: as §1

[4] = test system: windgrass (Apera spica-venti)
How it was run: as §1

[5] = test system: foxtail, green (green foxtail, Setaria viridis)
How it was run: as §1

[6] = test system: speedwell (bird's-eye speedwell, Veronica persica)
How it was run: as §1

[7] = test system: buckwheat, wild (wild buckwheat, Polygonum convolvulus)
How it was run: as §1

[8] = test system: chamomile (scentless chamomile, Matricaria inodora)
How it was run: as §1

[9] = test system: bromegrass, downy (downy bromegrass, Bromus tectorum)
How it was run: as §1

[10] = test system: oilseed rape (Brassica napus)
How it was run: as §1

kochia (Kochia scoparia) = test system: kochia (Kochia scoparia)
How it was run: as §1

[11] = test system: mustard, wild (wild mustard, Sinapis arvensis)
How it was run: as §1

[12] = test system: pigweed (Amaranthus retroflexus)
How it was run: as §1

[13] = test system: ryegrass, Italian (Italian ryegrass, Lolium multiflorum)
How it was run: as §1

[14] = Postemergence, 31 g ai/ha, scale 0 to 100 (0 no effect, 100 complete control)
[15] = Postemergence, 125 g ai/ha, visual rating on scale 0 (no effect) to 100 (complete control), 14 to 21 d
[16] = Postemergence, 250 g ai/ha, scale 0 to 100 (0 no effect, 100 complete control)
[17] = Preemergence, 62 g ai/ha, scale 0 to 100 (0 no effect, 100 complete control)
[18] = Preemergence, 125 g ai/ha, scale 0 to 100 (0 no effect, 100 complete control)
[19] = Preemergence, 250 g ai/ha, scale 0 to 100, 0 no effect, 100 complete control
[20] = postemergence, 62 g ai/ha, scale 0 to 100, 0 no effect, 100 complete control

SMILES: Cc1ccc2ccccc2c1-c1c(OC(=O)OC(C)C)c(C)nn(C)c1=O [Compound 72]
- Blackgrass plant response rating [1, 14]: 40
- Plant response rating, Blackgrass [1, 15]: 75
- Plant response rating, Blackgrass [1, 16]: 80
- Plant response rating (scale of 0 to 100), Blackgrass ([1]; Preemergence, 31 g ai/ha): 15
- Plant response rating, Blackgrass [1, 17]: 30
- Plant response rating, Blackgrass [1, 18]: 55
- Plant response rating, Blackgrass [1, 19]: 75
- Plant response rating, Blackgrass [1, 20]: 70
- Deadnettle plant response rating [2, 14]: 85
- Plant response rating, Deadnettle [2, 15]: 100
- Plant response rating, Deadnettle [2, 16]: 100
- Plant response rating (scale of 0 to 100), Deadnettle ([2]; Preemergence, 31 g ai/ha): 5
- Plant response rating, Deadnettle [2, 17]: 15
- Plant response rating, Deadnettle [2, 18]: 65
- Plant response rating, Deadnettle [2, 19]: 70
- Plant response rating, Deadnettle [2, 20]: 90
- Galium plant response rating [3, 14]: 95
- Plant response rating, Galium [3, 15]: 100
- Plant response rating, Galium [3, 16]: 100
- Plant response rating (scale of 0 to 100), Galium ([3]; Preemergence, 31 g ai/ha): 20
- Plant response rating, Galium [3, 17]: 60
- Plant response rating, Galium [3, 18]: 70
- Plant response rating, Galium [3, 19]: 85
- Plant response rating, Galium [3, 20]: 100
- Windgrass plant response rating [4, 14]: 65
- Plant response rating, Windgrass [4, 15]: 80
- Plant response rating, Windgrass [4, 16]: 85
- Plant response rating (scale of 0 to 100), Windgrass ([4]; Preemergence, 31 g ai/ha): 25
- Plant response rating, Windgrass [4, 17]: 65
- Plant response rating, Windgrass [4, 18]: 80
- Plant response rating, Windgrass [4, 19]: 90
- Plant response rating, Windgrass [4, 20]: 75
- Foxtail, Green plant response rating [5, 14]: 60
- Plant response rating, Foxtail, Green [5, 15]: 70
- Plant response rating, Foxtail, Green [5, 16]: 75
- Plant response rating (scale of 0 to 100), Foxtail, Green ([5]; Preemergence, 31 g ai/ha): 20
- Plant response rating, Foxtail, Green [5, 17]: 30
- Plant response rating, Foxtail, Green [5, 18]: 60
- Plant response rating, Foxtail, Green [5, 19]: 85
- Plant response rating, Foxtail, Green [5, 20]: 65
- Speedwell plant response rating [6, 14]: 75
- Plant response rating, Speedwell [6, 15]: 100
- Plant response rating, Speedwell [6, 16]: 80
- Plant response rating (scale of 0 to 100), Speedwell ([6]; Preemergence, 31 g ai/ha): 5
- Plant response rating, Speedwell [6, 17]: 70
- Plant response rating, Speedwell [6, 19]: 100
- Plant response rating, Speedwell [6, 20]: 75
- Buckwheat, Wild plant response rating [7, 14]: 95
- Plant response rating, Buckwheat, Wild [7, 15]: 100
- Plant response rating, Buckwheat, Wild [7, 16]: 100
- Plant response rating (scale of 0 to 100), Buckwheat, Wild ([7]; Preemergence, 31 g ai/ha): 0
- Plant response rating, Buckwheat, Wild [7, 17]: 0
- Plant response rating, Buckwheat, Wild [7, 18]: 15
- Plant response rating, Buckwheat, Wild [7, 19]: 10
- Plant response rating, Buckwheat, Wild [7, 20]: 100
- Chamomile plant response rating [8, 14]: 75
- Plant response rating, Chamomile [8, 15]: 85
- Plant response rating, Chamomile [8, 16]: 100
- Plant response rating, Chamomile [8, 20]: 80
- Bromegrass, Downy plant response rating [9, 14]: 45
- Plant response rating, Bromegrass, Downy [9, 15]: 65
- Plant response rating, Bromegrass, Downy [9, 16]: 75
- Plant response rating (scale of 0 to 100), Bromegrass, Downy ([9]; Preemergence, 31 g ai/ha): 0
- Plant response rating, Bromegrass, Downy [9, 17]: 0
- Plant response rating, Bromegrass, Downy [9, 18]: 35
- Plant response rating, Bromegrass, Downy [9, 19]: 60
- Plant response rating, Bromegrass, Downy [9, 20]: 55
- Oilseed Rape plant response rating [10, 14]: 65
- Plant response rating, Oilseed Rape [10, 15]: 80
- Plant response rating, Oilseed Rape [10, 16]: 90
- Plant response rating (scale of 0 to 100), Oilseed Rape ([10]; Preemergence, 31 g ai/ha): 5
- Plant response rating, Oilseed Rape [10, 17]: 15
- Plant response rating, Oilseed Rape [10, 18]: 15
- Plant response rating, Oilseed Rape [10, 19]: 25
- Plant response rating, Oilseed Rape [10, 20]: 70
- Kochia plant response rating (kochia (Kochia scoparia); [14]): 80
- Plant response rating, Kochia (kochia (Kochia scoparia); [15]): 100
- Plant response rating, Kochia (kochia (Kochia scoparia); [16]): 100
- Plant response rating (scale of 0 to 100), Kochia (kochia (Kochia scoparia); Preemergence, 31 g ai/ha): 10
- Plant response rating, Kochia (kochia (Kochia scoparia); [17]): 15
- Plant response rating, Kochia (kochia (Kochia scoparia); [18]): 10
- Plant response rating, Kochia (kochia (Kochia scoparia); [19]): 40
- Plant response rating, Kochia (kochia (Kochia scoparia); [20]): 95
- Mustard, Wild plant response rating [11, 14]: 85
- Plant response rating, Mustard, Wild [11, 15]: 100
- Plant response rating, Mustard, Wild [11, 16]: 100
- Plant response rating (scale of 0 to 100), Mustard, Wild ([11]; Preemergence, 31 g ai/ha): 0
- Plant response rating, Mustard, Wild [11, 17]: 25
- Plant response rating, Mustard, Wild [11, 18]: 60
- Plant response rating, Mustard, Wild [11, 19]: 80
- Plant response rating, Mustard, Wild [11, 20]: 100
- Pigweed plant response rating [12, 14]: 95
- Plant response rating, Pigweed [12, 15]: 100
- Plant response rating, Pigweed [12, 16]: 100
- Plant response rating (scale of 0 to 100), Pigweed ([12]; Preemergence, 31 g ai/ha): 35
- Plant response rating, Pigweed [12, 17]: 85
- Plant response rating, Pigweed [12, 18]: 95
- Plant response rating, Pigweed [12, 19]: 100
- Plant response rating, Pigweed [12, 20]: 100
- Ryegrass, Italian plant response rating [13, 14]: 95
- Plant response rating, Ryegrass, Italian [13, 15]: 95
- Plant response rating, Ryegrass, Italian [13, 16]: 100
- Plant response rating (scale of 0 to 100), Ryegrass, Italian ([13]; Preemergence, 31 g ai/ha): 55
- Plant response rating, Ryegrass, Italian [13, 17]: 75
- Plant response rating, Ryegrass, Italian [13, 18]: 100
- Plant response rating, Ryegrass, Italian [13, 19]: 90
- Plant response rating, Ryegrass, Italian [13, 20]: 95
